Laboratory results published in US20240335443A1, “IMIDAZOLOPYRIDAZINE OR PYRAZOLOPYRIMIDINE COMPOUNDS AND COMPOSITIONS” (Anrui Biomedical Technology (Guangzhou) Co., Ltd., priority 2021, published 2024).
Read-outs that look alike come from different tables or passages of the source.

Legend:
[1] = system: IL-23 induced STAT3 in HEK-Blue™ IL-23 cells; assay: IL-23 induced STAT3 QUANTI-Blue reporter assay in HEK-Blue IL-23 cells; assay type: cell-based; settings: IL-23 0.1 ng/mL, SEAP levels, class symbols, read-out: IL23 reporter assay (IC50 nM)
Summary of the method: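 HEK-Blue IL-23 cells, 5000/well, preincubated with compound 1 h at 37 °C, then stimulated overnight with IL-23 at 0.1 ng/mL final. Supernatant mixed with QUANTI-Blue for 2 h at 37 °C and secreted SEAP read out.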

[2] = molecular target: T1, N-terminal His-tagged TYK2 pseudokinase domain (Homo sapiens, UniProt P29597); assay: TYK2 JH2 domain SPA binding assay; settings: displacement of H3 probe (20 nM), 30 min room temperature; class symbols
T1 construct: the N-terminal His-tagged TYK2 pseudokinase domain; His (N); purchased Pharmaron
T1 sequence (P29597 589-875 limits assumed): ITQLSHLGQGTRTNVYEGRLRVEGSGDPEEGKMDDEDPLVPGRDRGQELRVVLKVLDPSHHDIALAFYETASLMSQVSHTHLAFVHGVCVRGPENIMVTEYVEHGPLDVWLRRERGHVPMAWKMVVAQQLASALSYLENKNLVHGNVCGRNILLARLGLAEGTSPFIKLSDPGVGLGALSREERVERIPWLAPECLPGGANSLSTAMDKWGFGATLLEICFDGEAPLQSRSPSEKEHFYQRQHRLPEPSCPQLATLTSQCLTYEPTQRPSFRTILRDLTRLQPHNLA
Description: TYK2 JH2 Domain Binding Assay
After incubating at room temperature for 30 min, the inhibition was calculated by the displacement of [3H] 3 binding as determined by scintillation counting. Dose-response curves were generated to determine the concentration required to inhibit H3 probe binding by […] (IC50).

[3] = HEK-Blue IL-23, HEK-Blue IL-23 cells

Structure (SMILES)	IC50 [2]	IC50 [1, 3]	IC50 ([1]; HEK-Blue IL-23 cells)
[2H]c1onc2c1CCC2NC(=O)c1cnc2c(NC)cc(Nc3cccn(-c4ccccn4)c3=O)nn12 (centres unmarked) [Compound 8, N-(5,6-dihydro-4H-cyclopenta[c]isoxazol-6-yl-3-d)-8-(methylamino)-6-((2-oxo-2H-[1,2′-bipyridin]-3-yl)amino)imidazo[1,2-b]pyridazine-3-carboxamide]	< 10 nM	< 10 nM	
CNc1cc(Nc2cccn(C3C[C@H]4CC[C@@H](C3)O4)c2=O)nc2c(C(=O)N[C@@H]3C[C@@H]3F)cnn12 (some centres unmarked) [Compound 81]	10 to 100 nM	10 to 100 nM	
[2H]C([2H])([2H])Nc1cc(Nc2cccn([C@H]3C[C@H](OC([2H])([2H])[2H])C3)c2=O)nc2c(C(=O)N[C@@H]3C[C@@H]3F)cnn12 [Compound 100]	10 to 100 nM	10 to 100 nM	
CNc1cc(Nc2cccn(-c3ccn(C)n3)c2=O)nn2c(C(=O)NC(C)c3ncco3)cnc12 (single isomer, unassigned) [Compound 49a]	10 to 100 nM		< 10 nM
[2H]C([2H])([2H])Nc1cc(Nc2cccn(C3CCCC4(COC4)C3)c2=O)nn2c(C(=O)N[C@@H]3C[C@@H]3F)cnc12 (single isomer, unassigned) [Compound 75a]	100 to 1000 nM		100 to 1000 nM
CNc1cc(Nc2cccn(-c3ccccn3)c2=O)nn2c(C(=O)NC3CCC4CCOC43)cnc12 (racemic) [Compound 10b, N-(hexahydro-2H-cyclopenta[b]furan-6-yl)-8-(methylamino)-6-((2-oxo-2H-[1,2′-bipyridin]-3-yl)amino)imidazo[1,2-b]pyridazine-3-carboxamide]	> 1000 nM		≥ 1000 nM
CNc1cc(Nc2cccc3c2OCCC3)nn2c(C(=O)NCc3ncco3)cnc12 [Compound 20]	< 10 nM	< 10 nM	
CNc1cc(Nc2cccn([C@H]3C[C@H](F)C3)c2=O)nn2c(C(=O)NC3CCn4ncnc43)cnc12 (mixture of isomers) [Compound 91]	10 to 100 nM	10 to 100 nM	
CNc1cc(Nc2cccc3c2OCCC3)nn2c(C(=O)N[C@@H]3C[C@@H]4CCO[C@@H]43)cnc12 (racemic) [Compound 24]	10 to 100 nM	10 to 100 nM	
[2H]C([2H])([2H])Nc1cc(Nc2cccn(-c3ccn(C([2H])([2H])[2H])n3)c2=O)nn2c(C(=O)N[C@@H]3C[C@@H]3F)cnc12 [Compound 59]	10 to 100 nM	< 10 nM	
[2H]C([2H])([2H])n1ccc(-n2cccc(Nc3cc(NC)c4ncc(C(=O)N[C@@H]5C[C@@H]5F)n4n3)c2=O)n1 [Compound 58]	10 to 100 nM	10 to 100 nM	
CNc1cc(Nc2cccn([C@H]3CC[C@H](OC)CC3)c2=O)nn2c(C(=O)N[C@@H]3C[C@H]4CCO[C@H]43)cnc12 [Compound 63]	< 10 nM	< 10 nM	

Second part, led by results:

IC50 [2]	Structure (SMILES)	IC50 [1, 3]	IC50 ([1]; HEK-Blue IL-23 cells)
10 to 100 nM	CNc1cc(Nc2cccn(C3CC(C)(OC)C3)c2=O)nn2c(C(=O)N[C@@H]3C[C@H]4CCO[C@H]43)cnc12 (single isomer, unassigned) [Compound 92a]	10 to 100 nM	
10 to 100 nM	[2H]C([2H])([2H])Nc1cc(Nc2cccn(C3CC4(CCCO4)C3)c2=O)nn2c(C(=O)N[C@@H]3C[C@@H]3F)cnc12 (single isomer, unassigned) [Compound 104a]	10 to 100 nM	
> 1000 nM	CNc1cc(Nc2cccn([C@@H]3C[C@H]4CCO[C@H]43)c2=O)nn2c(C(=O)NC3CCC4CCOC43)cnc12 (single isomer, unassigned) [Compound 95b]		≥ 1000 nM
100 to 1000 nM	[2H]C([2H])([2H])Nc1cc(Nc2cccn(C3CC4(CCOC4)C3)c2=O)nc2c(C(=O)N[C@@H]3C[C@@H]3F)cnn12 (single isomer, unassigned) [Compound 103b]		10 to 100 nM
